The results in this text go back to PubChem BioAssay AID1259418 (Broad Institute, 2018).

“And” between values parts separate entries of the source, which are not always exact repeats. Identical values can stand only once. Records with an inconclusive call do not appear. The source made the active and inactive calls.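 How the source made its calls: active means fitted half-maximal concentration of signal decrease at or below twice the sample's top tested concentration; inconclusive means flat curve between -70 and -30 percent, or poor fit; inactive means flat within 30 percent, signal rise, or potency above limit.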 Some results are limits rather than exact numbers.

The assay deals with T. gondii ME49Luc in IFN-y HeLa, luciferase, 72 h. Briefly: inhibitors of Toxoplasma growth in IFN-γ-primed HeLa – cell-based, ME49Luc, luciferase, 72 h, dose response (AID 1259418).
By AC50 is commonly meant the midpoint of the concentration-response curve, whichever way the signal moves. `COc1ccc(-c2nc(NCCN3CCCCC3C)c3ccccc3n2)cc1` (centres undefined): the AC50 was 13.4 µM.
Turning to `O=C(Cc1ccncc1)N1CCCCN2[C@H](CO)[C@H](c3ccc(C#Cc4ccccc4F)cc3)[C@@H]2C1`, the AC50 is 8.53 µM.
In the case of `COCC(=O)N1[C@H](C#N)[C@H](c2ccc(C#Cc3ccccc3F)cc2)[C@@H]1CO` it was > 39 µM (inactive); in that of `COc1ccc2c(c1)NC1(CCN(C(=O)C3CCCCC3)CC1)c1cccn1-2`, > 39 µM (inactive).
For `O=C(COc1ccc(F)cc1)N1CCC2(CC1)Nc1ccc(Cl)cc1-n1cccc12` the value was 17 µM.
For `CCOc1ccccc1-c1nc(CN(c2ccccc2OC)S(=O)(=O)c2ccccc2C)c(C)o1` the value was 8.83 µM.
On to `COc1cccc(-c2nc3c(s2)CN(S(=O)(=O)c2ccccc2C)CC3)c1`, for which the AC50 is 6.95 µM and 17.2 µM.
In the case of `COc1ccc(N2CC(NC(=O)C(=O)c3c[nH]c4ccccc34)CC2=O)cc1` (centres undefined) it was 28.3 µM.
As to `COc1ccc(NC(=O)N2CCCCN3[C@H](CO)[C@@H](c4ccc(-c5ccccc5F)cc4)[C@@H]3C2)cc1`, the concentration at half-maximal activity (AC50) is 29.6 µM.
With `CC(C)CC#Cc1ccc([C@H]2[C@@H](CO)N3C(=O)CN(C(=O)Nc4cc(F)ccc4F)C[C@H]23)cc1`, the AC50 is 22.1 µM and 15.7 µM.
In the case of `OC1(c2cccc(C(F)(F)F)c2)CCN(Cc2ccc3[nH]ccc3c2)CC1` it was 33.5 µM; in that of `Cc1ccc(CNC(=O)CC2Nc3c4ccccc4nc(=S)n3C2=O)cc1` (centres undefined), 31.5 µM; in that of `O=C(NCCc1csc(-c2ccccc2)n1)C1CCN(S(=O)(=O)c2ccc(Cl)cc2)CC1`, 14.6 µM.
For `O=C(NCCc1csc(-c2ccccc2)n1)C1CCN(C(=O)Cc2cccc(F)c2)CC1` the value was 2.76 µM.
For `O=C1CCc2cc(S(=O)(=O)NCc3ccco3)cc3c2N1CCC3` the value was > 39 µM (inactive); for `OC[C@@H]1Nc2ccc(-c3cccc(F)c3)cc2[C@@H]2[C@H]1CCN2Cc1ccc(F)cc1`, 18.5 µM.
In the case of `Cc1ccc(CSC2=Nc3ccccc3C3=NC(CCC(=O)NCc4cccs4)C(=O)N23)cc1` (centres undefined), the AC50 was 17.5 µM.
Take `O=C(O)CCc1nc2sc3c(c2c(=O)[nH]1)CCCC3`: the AC50 is > 20 µM (inactive).
Take `COC1(C)CC2C(CC1OC(=O)c1cc([N+](=O)[O-])cc([N+](=O)[O-])c1)C2(C)C` (centres undefined): the AC50 was 12.4 µM.
Regarding `O=C(CCC1N=C2c3ccccc3N=C(SCc3cccc(F)c3)N2C1=O)NCc1ccccc1` (centres undefined), the AC50 was 27.4 µM.
For `O=C(NCCc1csc(-c2ccccc2)n1)C1CCN(S(=O)(=O)c2ccc(F)cc2)CC1` the value was 11.4 µM; for `O=C(NCc1ccccc1)C1CC2(CO1)CN(C(=O)c1ccc(F)cc1)c1ccccc12` (centres undefined), > 39 µM (inactive).
For `O=C(c1cnccn1)N1CC(=O)N2[C@H](CO)[C@@H](c3ccc(/C=C/c4ccccc4)cc3)[C@@H]2C1`, the AC50 is 21.7 µM and 13.2 µM.
In the case of `COc1ccccc1-c1nc(Cn2nnc(-c3nc(-c4ccc(C)cc4)no3)c2C)c(C)o1` it was > 20 µM (inactive).
For `CCOc1ccccc1N(Cc1nc(-c2ccccc2)oc1C)S(=O)(=O)c1ccccc1` the value was 7.75 µM; for `CCOc1ccc(-c2nc(CN3CCN(C(=O)Nc4ccc(F)cc4)CC3)c(C)o2)cc1`, 12.8 µM.
In the case of `O=S(=O)(c1cccs1)N1CCCCN2[C@H](C1)[C@@H](c1ccc(/C=C/c3ccccc3)cc1)[C@@H]2CO`, the AC50 was 15.3 µM.
For `O=C(Cc1ccccc1)N1CC(=O)N2[C@H](CO)[C@@H](c3ccc(-c4ccc(F)cc4)cc3)[C@H]2C1` the value was 22.2 µM.
Take `O=C(Cc1ccncc1)N1CCCCN2[C@@H](CO)[C@H](c3ccc(C#Cc4ccccc4F)cc3)[C@@H]2C1`: the AC50 is 13.5 µM and 17.9 µM.
In the case of `C[C@H](NC(=O)C[C@H]1CC[C@@H]2[C@@H](COc3ccc(NS(=O)(=O)c4ccc(Cl)cc4)cc3C(=O)N2C)O1)c1ccccc1` it was 11.1 µM and 18.1 µM; in that of `Cc1ccn(CCNc2nccc(-c3c(C)nn(C)c3C)n2)n1`, 18.8 µM.
Regarding `O=C(Cc1cccnc1)N1CC(=O)N2[C@H](CO)[C@@H](c3ccc(C#CC4CCCCC4)cc3)[C@H]2C1`, the AC50 was 16.4 µM.
For `C=CC[C@@H]1CC=C[C@@H](C)N1C(=O)CCn1c(C)cc(C)nc1=O` the value was 26.4 µM.
On to `COC(=O)C[C@H]1CC[C@@H]2[C@@H](COc3ccc(NC(=O)Nc4cccc(C#N)c4)cc3C(=O)N2C)O1`, for which the AC50 was 27.5 µM and 18.5 µM.
For `N#CCSC1=Nc2ccccc2C2=NC(CC(=O)NCc3cccs3)C(=O)N12` (centres undefined) the value was 19.6 µM.
For `Cc1ccc(CCNc2nc(-c3ccc(Cl)cc3)nc3ccccc23)cc1` the value was 22.7 µM; for `COc1cccc(NC(=O)N2CC(=O)N3[C@H](C2)[C@H](c2ccc(C#CCC4CCCC4)cc2)[C@@H]3CO)c1`, 14.2 µM and 9.85 µM; for `CC(C)c1ccc(S(=O)(=O)N2CCC(C(=O)NCCc3csc(-c4ccccc4)n3)CC2)cc1`, 12.7 µM.
For `CCCCCCCCCCCCCCCC[N+](C)(C)C` the value was 16.3 µM; for `CC(C)(Cc1ccc2ccccc2c1)NC[C@@H](O)COc1cccc(Cl)c1C#N`, 13.3 µM; for `O=S(=O)(c1ccc(Cl)s1)N1CCC2(CC1)NCCN=C2NCc1ccc2c(c1)OCO2`, 34.8 µM.
Regarding `O=C1c2cccc(O)c2C(=O)c2c(O)cc(CO)cc21`, the AC50 was 16.6 µM.
Take `O=S(=O)(c1ccccc1)N1CCCCN2[C@H](CO)[C@@H](c3ccc(C#CC4CCCC4)cc3)[C@@H]2C1`: the AC50 is 13.4 µM.
For `COc1ccc(-c2nc(NCCc3ccc(OC)c(OC)c3)c3ccccc3n2)cc1` the value was 17.4 µM; for `CC(C)(C)c1ccc(CSC2=Nc3ccccc3C3=NC(CC(=O)NCc4ccco4)C(=O)N23)cc1` (centres undefined), 27.4 µM.
In the case of `Cc1ccc(NC(=O)c2cc(-c3cnc(-c4ccccc4)nc3)cn2CC2CC2)cn1` it was 10.9 µM; in that of `CCCNC(=O)C[C@H]1CC[C@H]2[C@@H](COC[C@@H](O)CN2C(=O)Nc2ccc(Cl)c(Cl)c2)O1`, 25.9 µM; in that of `O=C(CCc1ccccc1)N1CCC2(CC1)Nc1ccc(Cl)cc1-n1cccc12`, 27.4 µM.
For `CCN(CC)CCO[C@H]1CC[C@@]2(C)C(=CC[C@@H]3[C@@H]2CC[C@]2(C)C(=O)CC[C@@H]32)C1` the value was 12 µM; for `Clc1ccccc1CSc1nc(NCc2ccccc2)c2ccccc2n1`, > 39 µM (inactive).
In the case of `O=C(Nc1ccc2c(c1)OCO2)N1C[C@@H]2N[C@H](C1)C2c1ccc(C=Cc2ccccc2)cc1` (some centres undefined), the half-maximal activity concentration (AC50) was 4.2 µM and 3.84 µM.
For `COc1ccc(NC(=O)N2CCCCN3[C@H](C2)[C@@H](c2ccc(-c4ccccc4F)cc2)[C@@H]3CO)cc1` the value was 32.8 µM.
On to `CCOc1ccc(-c2nc(CN3CCN(C(=O)Nc4cccc(Cl)c4)CC3)c(C)o2)cc1`, for which the AC50 was 17.1 µM.
For `COc1ccc(-c2nc(NCCCN3CCCC3)c3ccccc3n2)cc1` the value was 14.2 µM; for `CC(C)Cc1ccc(S(=O)(=O)N2CCC[C@@H]2C(=O)NCCc2csc(-c3ccccc3)n2)cc1`, 12.4 µM; for `COc1ccccc1CN1CC[C@@H]2[C@H]1c1cc(-c3cccc(C(=O)N(C)C)c3)ccc1N[C@@H]2CO`, 19.6 µM.
In the case of `COc1cccc(-c2ccc3c(c2)[C@@H]2[C@@H](CCN2S(=O)(=O)c2ccccc2F)[C@@H](CO)N3)c1` it was 25.4 µM; in that of `O=S(=O)(c1ccc2c(c1)CCCC2)N1CCC2(CC1)NCCN=C2NC1CCCCC1`, 11.7 µM.
For `COc1cc([C@@H]2c3cc4c(cc3C(OC3OC5COC(C)OC5C(O)C3O)C3OCC(=O)[C@@H]32)OCO4)cc(OC)c1O` (some centres undefined) the value was 8.96 µM.
